System: THP1 cells, activated T-cells (ATC), J:CXCR1 cells
Test: Meta-analysis of individual chemokine-induced cell migration experiments
Format: cell-based, human
Conditions: seven CC and three CXC chemokines, Dunnett's test
Protocol: Cell migration assays were performed as follows. THP1 cell migration. Briefly, 300000 cells/well were added to the top chamber of a 5-µm 96-well Transwell insert (3387, Corning) in 50 µL of cell migration media (RPMI-1640 (R0883, Sigma), 0.5% FBS (F9665, Sigma), 4mM L-Glutamine (G7513, Sigma), 0.05% DMSO (D4540, Sigma)). The bottom chamber contained 150 µL of migration media with chemokine and peptide. Cells were migrated at 37 °C in 5% CO2 for 4 h. J:CXCR1 cell migration was performed exactly as above using a 3-µm Transwell insert (3385, Corning). Activated T-cell migration. Briefly, 100000 cells/well were added to the top chamber of a 3-µm Transwell insert (3385, Corning) in 50 µL of migration media (HBSS (14025-092, Life Technologies), 0.1% protease free bovine serum albumin (A7030, Sigma), 0.05% DMSO (D4540, Sigma)). The bottom chamber contained 150 µL of migration media with chemokine and peptide. Cells were migrated at 37 °C in 5% CO2 for 2 h. Buffy coat migration. Briefly, a mixture of all cell types at 100000 cells/well were added to the top chamber of a 3-µm Transwell insert (3385, Corning) in 50 µL of migration media (HBSS (14025-092, Life Technologies), 0.1% protease free bovine serum albumin (A7030, Sigma), 0.05% DMSO (D4540, Sigma). The bottom chamber contained 150 µL of migration media with chemokine and peptide. Cells were migrated at 37 °C in 5% CO2 for 2 h. Analysis of cell migration. The migration plate was shaken at 850 RPM for 10 min, and media from bottom plate transferred to a round-bottomed 96 well plate (353910, Falcon). Cells were counted by flow cytometry as described above. Experiments were performed at chemokine EC80 for individual chemotaxis experiments and at EC50 for the pooled chemokine experiments, with three technical replicates, and at least three biological replicates. Statistical significance of differences between control and test groups was evaluated using a two-sided Dunnett’s test with multiple testing correction. Chemokine EC80 or chemokine pool EC50 values were as determined by performing a chemokine dose-response against the cell type and fitting the dose-response curve with a 3-parameter log-logistic model, where the maximal response is fixed at 100% response. […] IC50 was determined by performing inhibitor dose-response experiments and fitting the dose-response curve with a 3-parameter log-logistic model, fixing the bottom of the curve to zero. […] For summary statistics and comparisons, pEC50, pEC80 and pIC50 were calculated as the negative log10 of EC50, EC80 or IC50 expressed in moles/litre.
Sample size and estimated effect sizes were not formally calculated for cell-based or phage-display experiments and no randomization was performed. […]

Row | Sequence | migrated cell count over all chemokines studied, compared to HD2 (meta-analysis)
1 | EEDDYWAYAPLTCYFT [HD2T6W, HD2 point mutant] | significant improvement over HD2
2 | EEDDWTAYAPLTCYFT [HD2Y5W, HD2 point mutant] | significant improvement over HD2

Source: publication PMC11969024, “Development of chemokine network inhibitors using combinatorial saturation mutagenesis” (Communications Biology, 2025)
